The values that follow come from patent publication US20120329784A1, “COMPOUNDS AND METHODS” (priority 2010, published 2012).

Each structure is given as a SMILES string. pIC50: −log10 of the molar value. Structures can show the parent of a compound that is named as a salt. Where two headings read alike, the source gives them in different places.

For the assay, the target named is T1, Full length human TNNI3K (hTNNI3K) (Homo sapiens, UniProt Q59H18).
T1 construct: His-MBP-TEV-Full length human TNNI3K (hTNNI3K); His (N); MBP (N); TEV cleavage site (N); made in house; host or cells: baculovirus expression system (printed 'Baculokinase system')
T1 sequence (Q59H18 1-835): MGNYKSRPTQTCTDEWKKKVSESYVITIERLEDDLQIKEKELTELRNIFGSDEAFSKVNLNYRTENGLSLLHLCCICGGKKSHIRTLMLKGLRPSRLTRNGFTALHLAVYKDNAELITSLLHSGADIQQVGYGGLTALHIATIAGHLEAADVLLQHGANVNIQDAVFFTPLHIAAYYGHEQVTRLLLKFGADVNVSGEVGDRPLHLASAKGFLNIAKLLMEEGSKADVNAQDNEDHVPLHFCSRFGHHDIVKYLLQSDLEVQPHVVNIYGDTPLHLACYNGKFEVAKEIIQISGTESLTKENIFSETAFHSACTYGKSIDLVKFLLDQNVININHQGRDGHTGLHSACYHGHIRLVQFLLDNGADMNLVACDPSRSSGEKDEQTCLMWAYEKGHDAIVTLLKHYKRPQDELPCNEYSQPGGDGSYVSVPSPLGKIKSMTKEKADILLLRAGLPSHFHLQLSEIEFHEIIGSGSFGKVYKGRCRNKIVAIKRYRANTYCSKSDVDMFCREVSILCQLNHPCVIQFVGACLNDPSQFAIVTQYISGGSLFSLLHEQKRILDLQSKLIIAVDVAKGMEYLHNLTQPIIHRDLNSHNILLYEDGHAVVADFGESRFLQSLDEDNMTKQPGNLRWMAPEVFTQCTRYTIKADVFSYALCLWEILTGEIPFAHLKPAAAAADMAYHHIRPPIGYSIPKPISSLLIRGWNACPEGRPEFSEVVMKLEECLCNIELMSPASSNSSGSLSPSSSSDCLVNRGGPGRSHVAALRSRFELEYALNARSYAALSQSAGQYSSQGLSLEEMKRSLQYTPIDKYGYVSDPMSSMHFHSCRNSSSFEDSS
Description: Fluorescent polarization assay of compound inhibition on hTNNI3K ATP binding (Biological Assay Method I). An excerpt:
Materials: His-MBP-TEV-Full length human TNNI3K (hTNNI3K) was expressed in Baculokinase system and purified from amylase affinity column followed by Superdex200. […] The preparation of this fluorescent ligand is disclosed in U.S. Provisional Patent Application No. 61/237,815 filed Aug. 28, 2009, the disclosure of which is incorporated by reference herein. The other buffer components, including MgCl2 (Catalog Number M1028), Bis-Tris (Catalog Number B7535), DTT (Catalog Number D9779) and Chaps (Catalog Number C3023) were purchased from Sigma-Aldrich.
A fluorescent polarization assay was used to determine does response of compound inhibition on hTNNI3K ATP binding. […]
Fifty (50) nL of inhibitors in DMSO (or DMSO controls) were stamped into a 384-well low volume Greiner black plate, followed by addition of 5 μL of Solution 1 to column 18 and 5 μL Solution 2 to columns 1-17 and 19-24 of the plate. […] After that, the fluorescent polarization was measured on Analyst (ex/em: 485/530 nm, Dichroic: 505). […]

Take `CNS(=O)(=O)c1cccc(Nc2cc(Nc3ccccc3)ncn2)c1` [Example 55, N-methyl-3-{[6-(phenylamino)-4-pyrimidinyl]amino}benzenesulfonamide trifluoroacetate]: the negative logarithm of the IC50 (pIC50) is ~7.00. Turning to `CNS(=O)(=O)c1cccc(Nc2cc(Nc3nc(C)co3)ncn2)c1` [Example 284, N-methyl-3-({6-[(4-methyl-1,3-oxazol-2-yl)amino]-4-pyrimidinyl}amino)benzenesulfonamide], the IC50 (mean of a minimum of 2 experiments, displacement of fluorescent ligand from hTNNI3K ATP binding pocket, 60 min at rt, read-out: pXC50 (the source's name) (converted)) is ~100 nM.
